Reference: patent publication US8883779B2, “Oxazine derivatives and a pharmaceutical composition for inhibiting BACE1 containing them” (Shinogi & Co., Ltd., priority 2011, dated 2014)
Values belong to the compound of their own block, whether it stands above or below them.

How the values were obtained:
[1] = Solubility test (turbidity, JP-I / JP-II medium); type: physicochemical; conditions: pH 6.8, aqueous buffer, kinetic from dmso stock, 2% DMSO solution, turbidity after 4 hours, read-out: solubility assessed by 3 stages
[2] = target: T1, CYP3A4 enzyme (enzyme expressed in Escherichia coli) (Homo sapiens, UniProt P08684); test: CYP3A4 fluorescent MBI test; type: in vitro ADME; conditions: 7-BFC substrate, pre-reaction time 0 or 30 minutes
T1 construct: host or cells: Escherichia coli
Experimental: The CYP3A4 fluorescent MBI test is a test of investigating enhancement of CYP3A4 inhibition of a compound by a metabolism reaction. 7-benzyloxytrifluoromethylcoumarin (7-BFC) is debenzylated by the CYP3A4 enzyme (enzyme expressed in Escherichia coli) and 7-hydroxytrifluoromethylcoumarin (7-HFC) is produced as a fluorescing metabolite. The test is performed using 7-HFC production reaction as an index.
The reaction conditions are as follows: substrate, 5.6 μmol/L 7-BFC; pre-reaction time, 0 or 30 minutes; substrate reaction time, 15 minutes; reaction temperature, 25° C. […]
An enzyme in a K-Pi buffer (pH 7.4) and a compound of the present invention solution as a pre-reaction solution were added to a 96-well plate at the composition of the pre-reaction. […] Fluorescent values of 7-HFC as a metabolite were measured in each index reaction plate with a fluorescent plate reader. […]
The sample adding DMSO to a reaction system instead of compound of the present invention solution was adopted as a control (100%) because DMSO is used as a solvent to dissolve a compound of the present invention. Remaining activity (%) was calculated at each concentration of the compound of the present invention added as the solution, and IC50 was calculated by reverse-presumption by a logistic model using a concentration and an inhibition rate. […]

[3] = target: T2, CYP1A2 (Homo sapiens, UniProt P05177); test: CYP inhibition test, 7-ethoxyresorufin O-deethylation; type: in vitro ADME; conditions: pooled human liver microsomes, 0.5 μmol/L ethoxyresorufin
T2 construct: The commercially available pooled human liver microsomes were used; from tissue; host or cells: pooled human liver microsomes
T2 sequence (P05177 1-516): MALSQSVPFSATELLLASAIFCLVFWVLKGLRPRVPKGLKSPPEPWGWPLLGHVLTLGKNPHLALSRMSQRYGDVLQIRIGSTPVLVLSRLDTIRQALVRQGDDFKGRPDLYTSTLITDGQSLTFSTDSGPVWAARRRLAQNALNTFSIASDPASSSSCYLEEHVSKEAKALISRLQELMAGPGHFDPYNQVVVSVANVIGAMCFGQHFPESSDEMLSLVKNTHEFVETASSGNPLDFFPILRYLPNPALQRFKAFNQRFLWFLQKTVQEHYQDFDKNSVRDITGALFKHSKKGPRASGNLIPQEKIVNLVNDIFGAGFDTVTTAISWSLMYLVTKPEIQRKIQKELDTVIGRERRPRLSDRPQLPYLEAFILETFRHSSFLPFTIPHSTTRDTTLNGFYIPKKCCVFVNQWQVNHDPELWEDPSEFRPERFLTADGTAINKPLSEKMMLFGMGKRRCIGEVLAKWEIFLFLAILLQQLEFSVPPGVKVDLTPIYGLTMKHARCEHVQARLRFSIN
Description: (§1) The test is to assess the inhibitory effect of a compound of the present invention towards typical substrate metabolism reactions on CYP enzymes in human liver microsomes. The commercially available pooled human liver microsomes were used.
(§2) The marker reactions on human main five CYP enzymes (CYP1A2, 2C9, 2C19, 2D6, and 3A4) were used as follows; 7-ethoxyresorufin O-deethylation (CYP1A2), tolbutamide methyl-hydroxylation (CYP2C9), mephenyloin 4′-hydroxylation (CYP2C19), dextromethorphan O-demethylation (CYP2D6), and terfenadine hydroxylation (CYP3A4 […]
(§3) Five kinds of substrates, human liver microsomes, or a compound of the present invention in 50 mmol/L Hepes buffer was added to a 96-well plate at the composition as described above as a reaction solution. […] After the centrifugation at 3000 rpm for 15 minutes, resorufin (CYP1A2 metabolite) in the supernatant was quantified by a fluorescent plate reader, and hydroxytolbutamide (CYP2C9 metabolite), 4′-hydroxymephenyloin (CYP2C19 metabolite), dextrorphan (CYP2D6 metabolite), and terfenadine alcohol metabolite (CYP3A4 metabolite) in the supernatant were quantified by LC/MS/MS. […]

[4] = target: T3, CYP2C9 (Homo sapiens, UniProt P11712); test: CYP inhibition test, tolbutamide methyl-hydroxylation; type: in vitro ADME; conditions: pooled human liver microsomes, 100 μmol/L tolbutamide
T3 construct: The commercially available pooled human liver microsomes were used; from tissue; host or cells: pooled human liver microsomes
Description: as §1, §2, §3

[5] = target: T4, CYP2C19 (Homo sapiens, UniProt P33261); test: CYP inhibition test, mephenyloin 4'-hydroxylation; type: in vitro ADME; conditions: pooled human liver microsomes, 50 μmol/L S-mephenyloin
T4 construct: The commercially available pooled human liver microsomes were used; from tissue; host or cells: pooled human liver microsomes
Description: as §1, §2, §3

[6] = target: T5, CYP2D6 (Homo sapiens, UniProt P10635); test: CYP inhibition test, dextromethorphan O-demethylation; type: in vitro ADME; conditions: pooled human liver microsomes, 5 μmol/L dextromethorphan
T5 construct: The commercially available pooled human liver microsomes were used; from tissue; host or cells: pooled human liver microsomes
Description: as §1, §2, §3

[7] = target: T6, CYP3A4 (Homo sapiens, UniProt P08684); test: CYP inhibition test, terfenadine hydroxylation; type: in vitro ADME; conditions: pooled human liver microsomes, 1 μmol/L terfenadine
T6 construct: The commercially available pooled human liver microsomes were used; from tissue; host or cells: pooled human liver microsomes
Description: as §1, §2, §3

[8] = target: T7, Recombinant human BACE1 (Homo sapiens, UniProt P56817); test: Assay of BACE1 inhibiting activity; type: biochemical; conditions: Recombinant human BACE1 7.4 nmol/L, substrate peptide 18 nmol/L, pH 5.0, 30° C., 3.5 hours; read-out: 50% inhibitory concentration against the enzymatic activity (IC50)
T7 construct: purchased R&D Systems
Experimental: 48.5 μL of substrate peptide solution (Biotin-XSEVNLDAEFRHDSGC-Eu: X=ε-amino-n-capronic acid, Eu=Europium cryptate) was added to each well of 96-hole half-area plate (a black plate: Costar), and after addition of 0.5 μl of the compound of the present invention (DMSO solution) and 1 μl of Recombinant human BACE1(R&D Systems), the reaction mixture was incubated at 30° C. for 3.5 hours. The substrate peptide was synthesized by reacting Cryptate TBPCOOH mono SMP (CIS bio international) with Biotin-XSEVNLDAEFRHDSGC (Peptide Institute, Inc.). The final concentrations of the substrate peptide and Recombinant human BACE1 were adjusted to 18 nmol/L and 7.4 nmol/L, respectively, and the reaction was performed in sodium acetate buffer (50 mmol/L sodium acetate, pH 5.0, 0.008% Triton X-100).
After the incubation for reaction, 50 μl of 8.0 μg/ml Streptavidin-XL665 (CIS bio international) dissolved in phosphate buffer (150 mmol/L K2 HPO4—KH2 PO4, pH 7.0, 0.008% Triton X-100, 0.8 mol/L KF) was added to each well and left stand at 30° C. for 45 minutes. After then, fluorescence intensity was measured (excitation wavelength: 320 nm, measuring wavelength: 620 nm and 665 nm) using Wallac 1420 multilabel counter (Perkin Elmer life sciences).

[9] = Metabolism stability test; type: in vitro ADME; conditions: human liver microsomes 0.5 mg protein/mL, 1 mmol/L NADPH, 37° C., 30 minutes
Experimental: Using a commercially available pooled human liver microsomes, a compound of the present invention is reacted for a constant time, a remaining rate is calculated by comparing a reacted sample and an unreacted sample, thereby, a degree of metabolism in liver was assessed.
A reaction was performed (oxidative reaction) at 37° C. for 0 minute or 30 minutes in the presence of 1 mmol/L NADPH in 0.2 mL of a buffer (50 mmol/L Tris-HCl pH 7.4, 150 mmol/L potassium chloride, 10 mmol/L magnesium chloride) containing 0.5 mg protein/mL of human liver microsomes. After the reaction, 50 μL of the reaction solution was added to 100 μL of a methanol/acetonitrile=1/1 (v/v), mixed and centrifuged at 3000 rpm for 15 minutes. The compound of the present invention in the supernatant was quantified by LC/MS/MS, and a remaining amount of the compound of the present invention after the reaction was calculated, letting a compound amount at 0 minute reaction time to be 100%.

T7 sequence (P56817 46-501): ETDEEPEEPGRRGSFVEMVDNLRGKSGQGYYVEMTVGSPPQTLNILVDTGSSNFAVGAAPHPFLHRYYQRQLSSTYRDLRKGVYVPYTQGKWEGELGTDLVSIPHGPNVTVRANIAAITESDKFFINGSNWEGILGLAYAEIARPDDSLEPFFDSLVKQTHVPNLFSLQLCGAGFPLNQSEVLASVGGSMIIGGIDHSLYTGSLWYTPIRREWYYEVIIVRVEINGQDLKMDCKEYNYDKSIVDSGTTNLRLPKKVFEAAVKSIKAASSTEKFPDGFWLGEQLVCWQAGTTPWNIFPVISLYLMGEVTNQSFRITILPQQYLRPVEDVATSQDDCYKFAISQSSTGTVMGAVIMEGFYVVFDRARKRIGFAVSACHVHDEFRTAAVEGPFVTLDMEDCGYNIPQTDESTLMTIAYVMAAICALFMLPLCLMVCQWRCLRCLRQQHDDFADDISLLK
T5 sequence (P10635 whole entry): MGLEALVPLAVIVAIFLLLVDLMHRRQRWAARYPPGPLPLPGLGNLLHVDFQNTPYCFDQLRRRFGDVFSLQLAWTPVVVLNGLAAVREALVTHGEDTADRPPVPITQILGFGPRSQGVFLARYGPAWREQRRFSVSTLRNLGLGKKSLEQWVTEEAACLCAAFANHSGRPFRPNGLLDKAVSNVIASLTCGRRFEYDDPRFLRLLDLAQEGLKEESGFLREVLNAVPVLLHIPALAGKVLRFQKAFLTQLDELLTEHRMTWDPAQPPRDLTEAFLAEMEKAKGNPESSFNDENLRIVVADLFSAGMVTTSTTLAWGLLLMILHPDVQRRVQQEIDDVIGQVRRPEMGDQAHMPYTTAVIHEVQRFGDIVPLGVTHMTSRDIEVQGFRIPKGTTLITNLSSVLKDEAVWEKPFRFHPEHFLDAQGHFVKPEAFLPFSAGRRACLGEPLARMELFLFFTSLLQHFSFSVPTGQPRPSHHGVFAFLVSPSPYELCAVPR
T4 sequence (P33261 whole entry): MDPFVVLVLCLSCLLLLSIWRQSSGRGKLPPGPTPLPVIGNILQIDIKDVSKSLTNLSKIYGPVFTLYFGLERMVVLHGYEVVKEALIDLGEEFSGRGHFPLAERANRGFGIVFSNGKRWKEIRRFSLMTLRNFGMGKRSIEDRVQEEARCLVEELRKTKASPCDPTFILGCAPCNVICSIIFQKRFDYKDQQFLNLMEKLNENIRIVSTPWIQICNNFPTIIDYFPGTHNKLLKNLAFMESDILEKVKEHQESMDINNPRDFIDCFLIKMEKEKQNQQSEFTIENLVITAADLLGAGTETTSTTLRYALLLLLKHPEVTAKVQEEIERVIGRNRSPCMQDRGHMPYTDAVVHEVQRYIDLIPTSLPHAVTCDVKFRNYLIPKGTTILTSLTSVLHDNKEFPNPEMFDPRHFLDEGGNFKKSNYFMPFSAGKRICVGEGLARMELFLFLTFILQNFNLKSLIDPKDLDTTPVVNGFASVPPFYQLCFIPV
T3 sequence (P11712 whole entry): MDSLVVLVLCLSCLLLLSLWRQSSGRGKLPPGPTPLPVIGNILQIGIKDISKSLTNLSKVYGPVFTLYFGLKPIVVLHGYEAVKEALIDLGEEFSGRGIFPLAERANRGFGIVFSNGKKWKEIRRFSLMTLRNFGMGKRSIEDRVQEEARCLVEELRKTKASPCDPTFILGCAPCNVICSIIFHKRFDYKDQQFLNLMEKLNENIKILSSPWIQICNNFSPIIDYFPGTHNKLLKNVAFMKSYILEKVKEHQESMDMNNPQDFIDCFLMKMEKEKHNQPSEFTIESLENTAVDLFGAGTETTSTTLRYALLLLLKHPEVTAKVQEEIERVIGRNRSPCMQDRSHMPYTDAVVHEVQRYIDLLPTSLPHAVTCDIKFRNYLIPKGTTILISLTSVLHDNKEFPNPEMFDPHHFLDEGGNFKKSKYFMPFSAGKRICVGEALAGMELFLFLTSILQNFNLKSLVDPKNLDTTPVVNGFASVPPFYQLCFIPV
T1 sequence (P08684 whole entry): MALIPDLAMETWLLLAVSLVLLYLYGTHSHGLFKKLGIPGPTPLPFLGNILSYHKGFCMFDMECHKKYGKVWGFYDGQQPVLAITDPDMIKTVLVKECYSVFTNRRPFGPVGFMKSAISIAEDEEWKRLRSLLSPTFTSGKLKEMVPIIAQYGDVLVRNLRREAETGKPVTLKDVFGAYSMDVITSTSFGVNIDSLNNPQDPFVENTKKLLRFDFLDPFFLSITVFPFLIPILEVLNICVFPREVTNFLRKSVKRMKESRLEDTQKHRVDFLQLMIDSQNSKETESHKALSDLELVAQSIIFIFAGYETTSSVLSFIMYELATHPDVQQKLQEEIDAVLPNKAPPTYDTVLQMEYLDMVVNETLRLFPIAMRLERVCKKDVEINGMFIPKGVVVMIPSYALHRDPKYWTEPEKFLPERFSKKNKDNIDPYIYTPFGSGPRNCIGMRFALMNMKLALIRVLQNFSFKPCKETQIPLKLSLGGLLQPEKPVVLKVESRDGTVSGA
T6 sequence (P08684 whole entry): as above

solubility at 4 h [1]: > 40 µM
SMILES: CC1=C[C@@](C)(c2cc(NC(=O)c3ccc(C(F)F)cn3)ccc2F)N=C(N)O1 [Compound I-5]

CYP3A4 MBI: difference of IC50 without and with preincubation [2]: (−) (the difference is 3 μM or less)
SMILES: CC1=C[C@@](C)(c2cc(NC(=O)c3cnc(OCF)cn3)ccc2F)N=C(N)O1 [Compound I-1]

IC50 [3]: > 20000 nM
IC50 [4]: > 20000 nM
IC50 [5]: > 20000 nM
IC50 [6]: > 20000 nM
IC50 [7]: > 20000 nM
SMILES: C[C@@]1(c2cc(NC(=O)c3ncc(C#N)cc3F)ccc2F)C=COC(N)=N1 [Compound I-9]

IC50 [8]: 5.3 nM
SMILES: C[C@@]1(c2cc(NC(=O)c3ccc(C#N)cn3)ccc2F)C=C(C(F)F)OC(N)=N1 [Compound I-2]

IC50 [8]: 64 nM
SMILES: CC1=C[C@@](C)(c2cc(NC(=O)c3ccc(C#N)cn3)ccc2Cl)N=C(N)O1 [Compound I-11]

IC50 [8]: 10.6 nM
SMILES: C[C@@]1(c2cc(NC(=O)c3ccc(C#N)cn3)ccc2F)C=C(CO)OC(N)=N1 [Compound I-4]

IC50 [8]: 10.3 nM
remaining amount of the compound after the reaction [9]: 99%
SMILES: C[C@@]1(c2cc(NC(=O)c3cnc(OC(F)F)cn3)ccc2F)C=COC(N)=N1 [Compound I-8]
